These results are taken from patent publication US20100311729A1, “Substituted imidazopyridazines and pyrrolopyrimidines as lipid kinase inhibitors” (priority 2007, published 2010).

What is called melting point is the temperature of the solid-liquid transition.

Molecules are shown by their SMILES.

Data set [1] deals with T1, PI3K delta (Homo sapiens, UniProt O00329).
T1 construct: for the full-length p110-d subunit are generated and fused by overlapping PCR; His tag (C); made in house; host or cells: baculovirus; Tn5 (Trichoplusia ni) or TiniPro insect cells
Nature of the data set: PI3 kinase assay (Kinase-Glo luminescence), PI3K delta. It counts as biochemical. The following applies: Enzymatic Data; read-out: PI3K delta IC50 [umol]. The essentials:
(§1)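 Recombinant PI3K constructs (alfa 10 nM, delta 10 nM, gamma 150 nM) with 1 μM ATP and 10 μg/mL phosphatidylinositol in Tris pH 7.5, MgCl2, NaCl, CHAPS, DTT; 60 min (alfa, delta) or 120 min (gamma) at room temperature. ATP depletion read by Kinase-Glo luminescence; IC50 from 4-parameter logistic fit over 8 concentrations.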

The target in data set [2] is T2, PI3K beta (Homo sapiens, UniProt P42338).
T2 construct: for the full-length p110-b subunit are generated and fused by overlapping PCR; His tag (C); made in house; host or cells: baculovirus; Tn5 (Trichoplusia ni) or TiniPro insect cells
The data set is described as follows: PI3 kinase assay (Kinase-Glo luminescence), PI3K beta. It counts as biochemical. Conditions: Enzymatic Data; read-out: PI3K beta IC50 [umol]. The essentials:
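PI3Kβ (25 nM, BV-949) with 10 μg/mL phosphatidylinositol in Tris pH 7.5/MgCl2/NaCl/CHAPS/DTT buffer; reaction started with 1 μM ATP, 60 min at room temperature. ATP depletion read by Kinase-Glo luminescence; 8-point dilutions, IC50 by four-parameter logistic fit.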
(Kinase-Glo measures the ATP left after a reaction by luminescence.)

The target in data set [3] is T3, PI3K gamma (Homo sapiens, UniProt P48736).
T3 construct: PI3Kγ BV-950 p110g(D144aa)-C-Term His Tag; His tag (C); made in house; host or cells: construct from the Roger Williams lab (MRC LMB) in pVL1393; baculovirus; Tn5 (Trichoplusia ni) or TiniPro insect cells
Nature of the data set: PI3 kinase assay (Kinase-Glo luminescence), PI3K gamma. The following applies: Enzymatic Data; read-out: PI3K gamma IC50 [umol]. It counts as biochemical. The essentials: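 Percent inhibition at eight concentrations (typically 10 to 0.003 […]) fitted to a four-parameter logistic model to give IC50. Reaction initiated with ATP; final ATP 1 μM and phosphatidylinositol 10 μg/mL; ATP consumption read by Kinase-Glo luminescence.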

In data set [4] the target is T4, PI3K alfa (Homo sapiens, UniProt P42336).
T4 construct: for the p110-a subunit (with a deletion of the first 20 amino acids); His tag (C); made in house; host or cells: baculovirus; Tn5 (Trichoplusia ni) or TiniPro insect cells
The data set is described as follows: PI3 kinase assay (Kinase-Glo luminescence), PI3K alfa. It counts as biochemical. Conditions: Enzymatic Data; read-out: PI3K alfa IC50 [umol]. The essentials: as §1

T1 sequence (O00329 with tags, fused parts or gaps limits assumed): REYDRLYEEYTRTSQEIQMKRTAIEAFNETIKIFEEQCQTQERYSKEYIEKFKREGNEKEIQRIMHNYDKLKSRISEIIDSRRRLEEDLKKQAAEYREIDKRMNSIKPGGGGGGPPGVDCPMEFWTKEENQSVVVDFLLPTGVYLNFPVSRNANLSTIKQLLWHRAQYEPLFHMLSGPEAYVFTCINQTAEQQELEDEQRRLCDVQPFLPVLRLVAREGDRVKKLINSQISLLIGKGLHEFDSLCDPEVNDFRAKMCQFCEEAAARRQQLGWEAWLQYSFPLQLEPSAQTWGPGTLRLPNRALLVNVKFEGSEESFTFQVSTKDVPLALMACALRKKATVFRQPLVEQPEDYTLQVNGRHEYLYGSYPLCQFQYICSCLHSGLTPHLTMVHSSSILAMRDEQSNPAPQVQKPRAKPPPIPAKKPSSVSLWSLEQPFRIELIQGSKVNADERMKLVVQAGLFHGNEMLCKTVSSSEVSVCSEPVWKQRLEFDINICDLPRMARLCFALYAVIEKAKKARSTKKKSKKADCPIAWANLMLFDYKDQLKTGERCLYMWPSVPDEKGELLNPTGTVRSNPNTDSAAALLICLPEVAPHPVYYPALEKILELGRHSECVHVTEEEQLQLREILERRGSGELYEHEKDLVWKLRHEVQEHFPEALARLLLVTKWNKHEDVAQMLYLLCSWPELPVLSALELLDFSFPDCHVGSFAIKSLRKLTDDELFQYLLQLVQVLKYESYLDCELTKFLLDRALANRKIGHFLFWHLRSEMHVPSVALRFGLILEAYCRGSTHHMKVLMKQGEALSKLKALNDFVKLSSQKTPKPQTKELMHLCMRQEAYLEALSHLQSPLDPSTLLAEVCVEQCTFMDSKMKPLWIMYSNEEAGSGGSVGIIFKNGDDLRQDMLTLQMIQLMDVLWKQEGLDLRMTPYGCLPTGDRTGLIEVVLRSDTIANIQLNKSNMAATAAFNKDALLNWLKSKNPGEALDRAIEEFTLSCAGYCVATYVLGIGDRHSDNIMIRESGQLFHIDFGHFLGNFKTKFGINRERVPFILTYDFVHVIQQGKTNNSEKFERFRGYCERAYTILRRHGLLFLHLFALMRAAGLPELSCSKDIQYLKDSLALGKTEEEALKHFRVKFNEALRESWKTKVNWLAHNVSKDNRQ
T4 sequence (P42336 with tags, fused parts or gaps limits assumed): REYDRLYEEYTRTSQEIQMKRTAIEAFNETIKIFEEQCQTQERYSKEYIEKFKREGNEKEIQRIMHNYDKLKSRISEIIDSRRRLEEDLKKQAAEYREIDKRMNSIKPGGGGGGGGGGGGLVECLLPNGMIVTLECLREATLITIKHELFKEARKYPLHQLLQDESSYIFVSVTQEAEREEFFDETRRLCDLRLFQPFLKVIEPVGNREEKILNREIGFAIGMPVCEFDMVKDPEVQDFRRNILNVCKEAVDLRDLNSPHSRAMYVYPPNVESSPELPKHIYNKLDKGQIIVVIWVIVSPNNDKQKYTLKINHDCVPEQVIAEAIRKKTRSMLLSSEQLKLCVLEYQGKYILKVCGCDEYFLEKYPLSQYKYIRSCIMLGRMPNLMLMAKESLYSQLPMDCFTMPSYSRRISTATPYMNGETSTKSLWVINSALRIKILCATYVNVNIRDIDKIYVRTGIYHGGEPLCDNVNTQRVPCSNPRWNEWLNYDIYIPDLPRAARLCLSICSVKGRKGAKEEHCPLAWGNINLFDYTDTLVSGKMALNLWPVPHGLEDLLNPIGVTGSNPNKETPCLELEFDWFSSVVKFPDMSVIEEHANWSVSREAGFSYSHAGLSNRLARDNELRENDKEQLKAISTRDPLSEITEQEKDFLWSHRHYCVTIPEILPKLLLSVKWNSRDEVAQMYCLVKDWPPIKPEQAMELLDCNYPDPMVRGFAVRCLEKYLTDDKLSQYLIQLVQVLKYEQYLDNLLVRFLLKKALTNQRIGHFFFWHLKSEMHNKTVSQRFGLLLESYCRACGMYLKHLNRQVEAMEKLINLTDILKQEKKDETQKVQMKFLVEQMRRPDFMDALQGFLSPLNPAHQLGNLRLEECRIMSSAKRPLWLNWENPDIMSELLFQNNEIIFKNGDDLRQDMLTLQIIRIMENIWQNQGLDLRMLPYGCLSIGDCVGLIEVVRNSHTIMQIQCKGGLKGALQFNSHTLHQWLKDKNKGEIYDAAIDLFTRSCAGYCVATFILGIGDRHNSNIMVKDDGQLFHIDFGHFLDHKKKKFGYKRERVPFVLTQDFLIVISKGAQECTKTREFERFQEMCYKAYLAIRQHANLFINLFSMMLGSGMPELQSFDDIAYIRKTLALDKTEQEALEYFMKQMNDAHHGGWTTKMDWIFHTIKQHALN
T3 sequence (P48736 144-1102 limits assumed): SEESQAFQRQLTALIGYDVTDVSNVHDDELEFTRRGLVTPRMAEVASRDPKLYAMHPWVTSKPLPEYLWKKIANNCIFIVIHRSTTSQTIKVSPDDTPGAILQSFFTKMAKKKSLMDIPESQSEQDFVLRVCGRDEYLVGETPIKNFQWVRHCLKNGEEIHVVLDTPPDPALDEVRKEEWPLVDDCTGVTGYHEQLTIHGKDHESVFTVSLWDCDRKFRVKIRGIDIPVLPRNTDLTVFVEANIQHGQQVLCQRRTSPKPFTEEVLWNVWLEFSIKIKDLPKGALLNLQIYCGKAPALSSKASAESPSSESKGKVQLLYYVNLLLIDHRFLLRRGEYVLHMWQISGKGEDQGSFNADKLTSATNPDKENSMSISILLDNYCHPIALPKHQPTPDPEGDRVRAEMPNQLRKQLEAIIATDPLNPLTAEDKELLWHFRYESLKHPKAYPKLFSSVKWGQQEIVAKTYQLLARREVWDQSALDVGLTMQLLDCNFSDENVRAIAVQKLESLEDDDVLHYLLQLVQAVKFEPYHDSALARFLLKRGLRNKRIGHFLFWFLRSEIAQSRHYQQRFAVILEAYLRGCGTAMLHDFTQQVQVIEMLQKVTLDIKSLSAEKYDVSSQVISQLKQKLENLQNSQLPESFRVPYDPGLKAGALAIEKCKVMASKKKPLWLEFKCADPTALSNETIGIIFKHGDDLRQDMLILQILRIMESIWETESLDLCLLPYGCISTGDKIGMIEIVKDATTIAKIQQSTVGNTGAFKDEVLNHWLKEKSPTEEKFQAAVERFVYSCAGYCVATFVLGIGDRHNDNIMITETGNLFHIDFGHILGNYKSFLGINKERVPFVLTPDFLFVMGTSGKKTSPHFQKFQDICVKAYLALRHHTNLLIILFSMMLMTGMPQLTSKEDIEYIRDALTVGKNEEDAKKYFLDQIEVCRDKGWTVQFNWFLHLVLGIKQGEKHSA
T2 sequence (P42338 with tags, fused parts or gaps limits assumed): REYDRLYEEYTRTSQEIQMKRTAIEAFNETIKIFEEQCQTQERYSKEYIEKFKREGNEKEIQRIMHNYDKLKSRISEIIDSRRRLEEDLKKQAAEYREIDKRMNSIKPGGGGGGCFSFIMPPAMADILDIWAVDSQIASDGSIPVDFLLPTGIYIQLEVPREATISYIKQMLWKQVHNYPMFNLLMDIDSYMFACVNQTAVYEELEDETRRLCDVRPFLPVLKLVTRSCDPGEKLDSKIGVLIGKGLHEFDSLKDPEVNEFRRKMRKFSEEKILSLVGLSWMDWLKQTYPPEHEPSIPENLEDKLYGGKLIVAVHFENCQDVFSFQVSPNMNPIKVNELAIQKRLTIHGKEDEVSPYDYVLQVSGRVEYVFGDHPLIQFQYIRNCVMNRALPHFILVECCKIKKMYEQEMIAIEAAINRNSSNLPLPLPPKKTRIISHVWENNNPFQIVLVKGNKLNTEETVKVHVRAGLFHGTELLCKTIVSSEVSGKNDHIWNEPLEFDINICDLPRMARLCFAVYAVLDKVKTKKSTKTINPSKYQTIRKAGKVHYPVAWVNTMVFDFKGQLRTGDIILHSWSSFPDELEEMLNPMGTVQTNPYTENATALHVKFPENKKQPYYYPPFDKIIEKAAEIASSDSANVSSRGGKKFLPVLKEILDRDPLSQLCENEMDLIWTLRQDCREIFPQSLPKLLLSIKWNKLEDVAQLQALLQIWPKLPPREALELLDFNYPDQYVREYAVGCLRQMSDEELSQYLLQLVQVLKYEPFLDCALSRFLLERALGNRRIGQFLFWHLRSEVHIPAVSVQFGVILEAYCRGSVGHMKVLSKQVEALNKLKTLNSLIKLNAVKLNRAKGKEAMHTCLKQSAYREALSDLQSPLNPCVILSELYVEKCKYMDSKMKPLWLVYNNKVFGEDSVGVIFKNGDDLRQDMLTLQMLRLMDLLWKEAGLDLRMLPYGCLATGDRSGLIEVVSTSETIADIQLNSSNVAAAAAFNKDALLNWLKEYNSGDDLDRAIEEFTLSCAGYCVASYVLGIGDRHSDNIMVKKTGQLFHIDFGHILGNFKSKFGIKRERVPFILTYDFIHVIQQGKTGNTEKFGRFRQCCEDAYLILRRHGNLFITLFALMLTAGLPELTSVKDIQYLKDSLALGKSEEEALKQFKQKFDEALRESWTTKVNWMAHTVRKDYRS

The molecule `COC(=O)NCC1(COc2ccc(-c3ccc4ncc(-c5cnc(N)c(C(F)(F)F)c5)n4n3)cc2)COC1` [Example 173, (3-{4-[3-(6-Amino-5-trifluoromethyl-pyridin-3-yl)-imidazo[1,2-b]Pyridazin-6-yl]-phenoxymethyl}-oxetan-3-ylmethyl)-carbamic acid methyl ester] came in with a melting point of 179 to 181 °C. Further, in data set [1], the IC50 was 113 nM. Further, the IC50 in data set [2] stood at 1020 nM. Also, in data set [3], the IC50 was 516 nM. Moreover, the IC50 in data set [4] worked out at 39 nM.
For `Nc1ncc(-c2ccc3ncc(-c4ccc(CN5CCC(C(=O)N6CCCC6)CC5)cc4)n3n2)cc1C(F)(F)F` [Example 181], in that order: 209 to 211 °C, 16 nM, 180 nM, 1080 nM and 12 nM.
